The target of this experiment is T1, human PF4 (Homo sapiens, UniProt P02776).
T1 construct: PF4 is a 70 amino acid, lysine-rich 7.8 kDa platelet-specific protein; made in house; host or cells: Escherichia coli BL21DE3 pLysS (pT7-7) and/or Drosophila S2 cells
T1 sequence (P02776 32-101): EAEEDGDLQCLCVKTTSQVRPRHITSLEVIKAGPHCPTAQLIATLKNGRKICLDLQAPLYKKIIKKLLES
Put plainly: Inhibition of PF4 tetramer formation (BS3 cross-linking, SDS-PAGE). The experiment is classed as biochemical. The note with it: for inhibition at 1 µM: 1 μM inhibitor; for inhibition at 1 µM / inhibition at 3 µM / inhibition at 5 µM / inhibition at 10 µM: read-out: % inhibition of PF4 tetramer formation at single concentration of inhibitor; for inhibition at 3 µM: 3 μM inhibitor (column A); for inhibition at 5 µM: 5 μM inhibitor; for inhibition at 10 µM: 10 μM inhibitor (column A). In a few lines: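 Recombinant human wild-type PF4 (E. coli-expressed, heparin-purified), 10 μg/ml in PBS, incubated with compound 15 min at 37° C or 60 min at room temperature, then cross-linked with 0.2 mM BS3 for 30 min at room temperature. Reducing 12% SDS-PAGE; bands quantified as % tetramer, trimer, dimer, monomer versus compound-free control.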

The mark [1] stands for this setting: read-out: IC50 of PF4 tetramer formation inhibition.

Drawing on US20250281424A1 (New York Blood Center, Inc, priority 2020, published 2025), this text covers IC50 and inhibition for 20 compounds.

Like-named read-outs stand apart in the source and are kept apart here.

One may read the IC50 as the concentration that gives 50% inhibition. For the compound `CC(C)(C)OC(=O)N1CCSC1C(=O)C1C(=O)c2ccc(C(=O)c3ccc4c(c3)C(=O)C(C(=O)C3SCCN3C(=O)OC(C)(C)C)C4=O)cc2C1=O` (stereo not shown) [Example 124, tert-butyl 2-[5-(2-{3-[(tert-butoxy)carbonyl]-1,3-thiazolidine-2-carbonyl}-1,3-dioxo-2,3-dihydro-1H-indene-5-carbonyl)-1,3-dioxo-2,3-dihydro-1H-indene-2-carbonyl]-1,3-thiazolidine-3-carboxylate], the IC50 under setting [1] worked out at 6.3 µM.
In the case of `CN(CC(=O)C1C(=O)c2ccc(C#Cc3ccc4c(c3)C(=O)C(C(=O)CN(C)C(=O)OC(C)(C)C)C4=O)cc2C1=O)C(=O)OC(C)(C)C` (stereo not shown) [Example 320, tert-butyl N-[2-(5-{2-[2-(2-{[(tert-butoxy)carbonyl](methyl)amino}acetyl)-1,3-dioxo-2,3-dihydro-1H-inden-5-yl]ethynyl}-1,3-dioxo-2,3-dihydro-1H-inden-2-yl)-2-oxoethyl]-N-methylcarbamate], the inhibition at 1 µM amounted to 12% and the inhibition at 3 µM worked out at 26%.
With `CN1CCC[C@H]1C(=O)C1C(=O)c2ccc(S(=O)(=O)c3ccc4c(c3)C(=O)C(C(=O)[C@@H]3CCCN3C)C4=O)cc2C1=O` (stereo partly drawn) [Example 167, 2-[(2S)-1-methylpyrrolidine-2-carbonyl]-5-({2-[(2S)-1-methylpyrrolidine-2-carbonyl]-1,3-dioxo-2,3-dihydro-1H-inden-5-yl}sulfonyl)-2,3-dihydro-1H-indene-1,3-dione], the inhibition at 5 µM came to 18% and the inhibition at 10 µM is 36%.
Turning to `COc1ccc(NC(=O)C2C(=O)c3ccc(S(=O)(=O)c4ccc5c(c4)C(=O)C(C(=O)Nc4ccc(OC)cc4)C5=O)cc3C2=O)cc1` (stereo not shown) [Example 35, 5,5′-sulphonylbis(1,3-dioxo-indan-2-carboxylic acid (4-methoxyphenyl)-amide)], the inhibition at 5 µM came out at 54% and the inhibition at 10 µM stood at 77%. Besides, under setting [1], the IC50 was 2.85 µM.
For the compound `O=C(c1ccc2c(c1)C(=O)C(C(=O)Nc1ccc(I)cc1)C2=O)c1ccc2c(c1)C(=O)C(C(=O)Nc1ccc(I)cc1)C2=O` (stereo not shown) [Example 105, N-(4-iodophenyl)-5-{2-[(4-iodophenyl)carbamoyl]-1,3-dioxo-2,3-dihydro-1H-indene-5-carbonyl}-1,3-dioxo-2,3-dihydro-1H-indene-2-carboxamide], under setting [1], the IC50 worked out at 2.8 µM.
With `O=C1CC(=O)c2cc(C(c3ccc4c(c3)C(=O)CC4=O)(C(F)(F)F)C(F)(F)F)ccc21` [Example 13, 5-(2,2,2-trifluoro-1-(5-indan-1,3-dionyl)-1-trifluoromethyl-ethyl)-indan-1,3-dione], the inhibition at 5 µM came to 16% and the inhibition at 10 µM is 74%.
Consider `O=C(c1ccc2c(c1)C(=O)C(C(=O)Cc1cccnc1)C2=O)c1ccc2c(c1)C(=O)C(C(=O)Cc1cccnc1)C2=O` (stereo not shown) [Example 238, 5-{1,3-dioxo-2-[2-(pyridin-3-yl)acetyl]-2,3-dihydro-1H-indene-5-carbonyl}-2-[2-(pyridin-3-yl)acetyl]-2,3-dihydro-1H-indene-1,3-dione], for which the inhibition at 1 µM came to 7% and the inhibition at 3 µM is 100%.
`O=C(NCC1CCOC1)C1C(=O)c2ccc(S(=O)(=O)c3ccc4c(c3)C(=O)C(C(=O)NCC3CCOC3)C4=O)cc2C1=O` (stereo not shown) [Example 362, 5-[(1,3-dioxo-2-{[(oxolan-3-yl)methyl]carbamoyl}-2,3-dihydro-1H-inden-5-yl)sulfonyl]-1,3-dioxo-N-[(oxolan-3-yl)methyl]-2,3-dihydro-1H-indene-2-carboxamide]: the inhibition at 1 µM is 33% and the inhibition at 3 µM worked out at 53%.
In the case of `COC(=O)[C@@H]1C[C@H]1C(=O)C1C(=O)c2ccc(S(=O)(=O)c3ccc4c(c3)C(=O)C(C(=O)[C@@H]3C[C@H]3C(=O)OC)C4=O)cc2C1=O` (stereo partly drawn) [Example 218, methyl (1R,2R)-2-[5-({2-[(1R,2R)-2-(methoxycarbonyl)cyclopropanecarbonyl]-1,3-dioxo-2,3-dihydro-1H-inden-5-yl}sulfonyl)-1,3-dioxo-2,3-dihydro-1H-indene-2-carbonyl]cyclopropane-1-carboxylate], the inhibition at 5 µM stood at 67% and the inhibition at 10 µM came out at 92%. Under setting [1], the IC50 was determined as 4 µM.
As for `CC(C)(C)OC(=O)NCCCC(=O)C1C(=O)c2ccc(Oc3ccc4c(c3)C(=O)C(C(=O)CCCNC(=O)OC(C)(C)C)C4=O)cc2C1=O` (stereo not shown) [Example 385, tert-butyl N-[4-(5-{[2-(4-{[(tert-butoxy)carbonyl]amino}butanoyl)-1,3-dioxo-2,3-dihydro-1H-inden-5-yl]oxy}-1,3-dioxo-2,3-dihydro-1H-inden-2-yl)-4-oxobutyl]carbamate], the inhibition at 1 µM turned out to be 29% and the inhibition at 3 µM was 59%.
With `O=C(O)CC(=O)C1C(=O)c2ccc(S(=O)(=O)c3ccc4c(c3)C(=O)C(C(=O)CC(=O)O)C4=O)cc2C1=O` (stereo not shown) [Example 404, 3-(5-{[2-(2-carboxyacetyl)-1,3-dioxo-2,3-dihydro-1H-inden-5-yl]sulfonyl}-1,3-dioxo-2,3-dihydro-1H-inden-2-yl)-3-oxopropanoic acid], the inhibition at 1 µM was 24% and the inhibition at 3 µM stood at 28%.
Turning to `O=C(NC1CC1)C1C(=O)c2ccc(-c3ccc4c(c3)C(=O)C(C(=O)NC3CC3)C4=O)cc2C1=O` (stereo not shown) [Example 110, (2Z,2′Z)-2,2′-bis[(cyclopropylamino)(hydroxyl)methylidene]-1H,1′H,2H,2′H,3H,3′H-[5,5′-biindene]-1,1′,3,3′-tetrone], the inhibition at 5 µM is 84% and the inhibition at 10 µM was 87%. The IC50 under setting [1] was about 4 µM.
Turning to `CCOCC(=O)C1C(=O)c2ccc(C(=O)c3ccc4c(c3)C(=O)C(C(=O)COCC)C4=O)cc2C1=O` (stereo not shown) [Example 229, 2-(2-ethoxyacetyl)-5-[2-(2-ethoxyacetyl)-1,3-dioxo-2,3-dihydro-1H-indene-5-carbonyl]-2,3-dihydro-1H-indene-1,3-dione], the inhibition at 1 µM was 43% and the inhibition at 3 µM was determined as 53%.
On to `O=C(c1ccc2c(c1)C(=O)C(C(=O)Cc1ccccc1)C2=O)c1ccc2c(c1)C(=O)C(C(=O)Cc1ccccc1)C2=O` (stereo not shown) [Example 190, 5-[1,3-dioxo-2-(2-phenylacetyl)-2,3-dihydro-1H-indene-5-carbonyl]-2-(2-phenylacetyl)-2,3-dihydro-1H-indene-1,3-dione], for which the inhibition at 5 µM is 79% and the inhibition at 10 µM was found to be 86%.
As to `CC(C)[C@@H](N)C(=O)C1C(=O)c2ccc(Oc3ccc4c(c3)C(=O)C(C(=O)[C@H](N)C(C)C)C4=O)cc2C1=O` (stereo partly drawn) [Example 351, 2-[(2R)-2-amino-3-methylbutanoyl]-5-({2-[(2R)-2-amino-3-methylbutanoyl]-1,3-dioxo-2,3-dihydro-1H-inden-5-yl}oxy)-2,3-dihydro-1H-indene-1,3-dione], the inhibition at 1 µM amounted to 12% and the inhibition at 3 µM stood at 21%.
Regarding `COC(=O)[C@H]1CCCC[C@H]1C(=O)C1C(=O)c2ccc(S(=O)(=O)c3ccc4c(c3)C(=O)C(C(=O)[C@@H]3CCCC[C@@H]3C(=O)OC)C4=O)cc2C1=O` (stereo partly drawn) [Example 257, methyl (1S,2R)-2-[5-({2-[(1R,2S)-2-(methoxycarbonyl)cyclohexanecarbonyl]-1,3-dioxo-2,3-dihydro-1H-inden-5-yl}sulfonyl)-1,3-dioxo-2,3-dihydro-1H-indene-2-carbonyl]cyclohexane-1-carboxylate], the inhibition at 1 µM stood at 7% and the inhibition at 3 µM was found to be 37%.
`CC(C)(C)OC(=O)N[C@@H](Cc1ccccc1)C(=O)C1C(=O)c2ccc(S(=O)(=O)c3ccc4c(c3)C(=O)C(C(=O)[C@H](Cc3ccccc3)NC(=O)OC(C)(C)C)C4=O)cc2C1=O` (stereo partly drawn) [Example 158, tert-butyl N-[(2S)-1-[5-({2-[(2S)-2-{[(tert-butoxy)carbonyl]amino}-3-phenylpropanoyl]-1,3-dioxo-2,3-dihydro-1H-inden-5-yl}sulfonyl)-1,3-dioxo-2,3-dihydro-1H-inden-2-yl]-1-oxo-3-phenylpropan-2-yl]carbamate]: the inhibition at 5 µM was determined as 100% and the inhibition at 10 µM was determined as 100%. Also, the IC50 under setting [1] turned out to be 1.4 µM.
Regarding `O=C(O)CCNC(=O)C1C(=O)c2ccc(S(=O)(=O)c3ccc4c(c3)C(=O)C(C(=O)NCCC(=O)O)C4=O)cc2C1=O` (stereo not shown) [Example 303, 3-{[5-({2-[(2-carboxyethyl)carbamoyl]-1,3-dioxo-2,3-dihydro-1H-inden-5-yl}sulfonyl)-1,3-dioxo-2,3-dihydro-1H-inden-2-yl]formamido}propanoic acid], the inhibition at 10 µM stood at 60%.
Take `CSCCC(=O)C1C(=O)c2ccc(C(=O)c3ccc4c(c3)C(=O)C(C(=O)CCSC)C4=O)cc2C1=O` (stereo not shown) [Example 277, 2-[3-(methylsulfanyl)propanoyl]-5-{2-[3-(methylsulfanyl)propanoyl]-1,3-dioxo-2,3-dihydro-1H-indene-5-carbonyl}-2,3-dihydro-1H-indene-1,3-dione]: the inhibition at 1 µM worked out at 38% and the inhibition at 3 µM was 41%. Under setting [1], the IC50 was found to be 3 µM.
Turning to `CO[C@@H](C)C(=O)C1C(=O)c2ccc(Oc3ccc4c(c3)C(=O)C(C(=O)[C@H](C)OC)C4=O)cc2C1=O` (stereo partly drawn) [Example 248, 2-[(2S)-2-methoxypropanoyl]-5-({2-[(2S)-2-methoxypropanoyl]-1,3-dioxo-2,3-dihydro-1H-inden-5-yl}oxy)-2,3-dihydro-1H-indene-1,3-dione], 3 µM corresponded to half-maximal inhibition (IC50), the inhibition at 1 µM came to 26% and the inhibition at 3 µM is 56%.
